Test results: US9591867B2, “Compositions of abscisic acid for animal health” (Valent BioSciences Corporation, priority 2010, dated 2017)

How the values were obtained:
rats = test: Two generation reproduction toxicity study, S-ABA continuously in the diet; type: in vivo; settings: for Mean Live Offspring Born: per litter; for SPLEEN WEIGHT, % DIFFERENCE: MALES
Experimental: (§1) Tests were conducted with (S)-(+)-abscisic acid in accordance with standard guidelines and procedures as evidenced by EPA Subchronic Toxicity Test Guidelines: 870.3050—Repeated Dose 28-Day Oral Toxicity Study in Rodents (July 2000); 870.3100—90-Day Oral Toxicity in Rodents (August 1998); 870.3650—Combined Repeated Dose Toxicity Study with the Reproduction/Developmental Toxicity Screening Test (July 2000); and 870.3200—21/28-Day Dermal Toxicity (August 1998), as well as Organization for Economic Co-operation and Development (OECD) Guidelines for the Testing of Chemicals including: Test No. 407: Repeated Dose 28-day Oral Toxicity Study in Rodents; Test No. 408: Repeated Dose 90-Day Oral Toxicity Study in Rodents; Test No. 416: Two-Generation Reproduction Toxicity; and Test No. 410: Repeated Dose Dermal Toxicity: 21/28-day Study.
This study was conducted to determine the potential adverse effects of the test substance on reproduction in a 2-generation study. This included determining the effects of the test substance on male and female reproductive processes, including gonadal function, estrous cyclicity, mating behavior, conception, gestation, parturition, lactation, weaning, and on growth and development of the offspring. A minimum of 1 litter was produced in each generation.
Three groups of male and female were offered ABA, continuously in the diet for at least 70 consecutive days prior to mating. Target tests substance concentrations were 10,000, 15,000, and 20,000 ppm for the F0 and F1 generations. A concurrent control group of 30 rats/sex was offered the basal diet continuously throughout the study. F0 animals were approximately 7 weeks of age at the initiation of test diet administration. The test diet was administered to the offspring selected to become the F1 generation following weaning. The F0 and F1 males continued to receive the test substance throughout mating and continuing through the day prior to euthanasia. The F0 and F1 females continued to receive the test substance throughout mating, gestation, and lactation, and through the day of euthanasia. For both generations (F1 and F2), 8 pups per litter (4 per sex, when possible) were selected to reduce the variability among the litters. Offspring (30/sex/group, if possible) from the pairing of the F0 animals were selected to constitute the F1 generation. F0 males and females were exposed for 127-130 consecutive days and F1 males and females were exposed for 178-186 consecutive days.
All animals were observed twice daily for appearance and behavior. Clinical observations, body weights, and food consumption were recorded at appropriate intervals for males throughout the study and for females prior to mating and during gestation and lactation. All F0 and F1 females were allowed to deliver and rear their pups until weaning on lactation day 21. Clinical observations, body weights, and sexes for F1 and F2 pups were recorded at appropriate intervals. Nonselected F1 pups and all surviving F2 pups were necropsied. Selected organs were weighed from 1 pup/sex/litter from F1 and F2 pups that wee necropsied. Each surviving F0 and F1 parental animal received a complete detailed gross necropsy following the completion of weaning of the F1 and F2 pups, respectively; selected organs were weighed. Spermatogenic endpoints were recorded for all F0 and F1 males, and ovarian primordial follicle counts were recorded for all F0 and F1 females in the control and high-exposure groups and all F0 and F1 females suspected of reduced fertility. Designated tissues from all F0 and F1 parental animals were examined microscopically.

[1] = Fetal data at scheduled necropsy (mg/kg/day dose groups); type: in vivo
Experimental: as §1

[2] = 10,000 ppm in diet, rat offspring
[3] = 20,000 ppm in diet, rat offspring

For `CC1=CC(=O)CC(C)(C)[C@@]1(O)/C=C/C(C)=C\C(=O)O` [S-ABA, (S)-(+)-abscisic acid], the “Offspring FOUND DEAD” value (rats; 10,000 ppm in diet) was 4, the “OFFSPRING WEIGHT, MEAN” value (rats; 10,000 ppm in diet, FEMALE, postnatal day 1) was 6.6 grams and the “OFFSPRING WEIGHT, MEAN” value (rats; 10,000 ppm in diet, FEMALE, postnatal day 4) was 9.1 grams. The “OFFSPRING WEIGHT, MEAN” value (rats; 10,000 ppm in diet, MALE, postnatal day 1) was 7.1 grams, the “OFFSPRING WEIGHT, MEAN” value (rats; 10,000 ppm in diet, MALE, postnatal day 4) was 9.7 grams and the “Mean Live Offspring Born” value (rats; 10,000 ppm in diet) was 12.3. The “POSTNATAL SURVIVAL, POSTNATAL DAY 0-1, MEAN” value (rats; [2]) was 100.0 % PER LITTER, the “POSTNATAL SURVIVAL, POSTNATAL DAY 7-14, MEAN” value (rats; [2]) was 100.0 % PER LITTER and the “POSTNATAL SURVIVAL, POSTNATAL DAY 14-21, MEAN” value (rats; [2]) was 100.0 % PER LITTER. The “Offspring FOUND DEAD” value (rats; 15,000 ppm in diet) was 15, the “OFFSPRING WEIGHT, MEAN” value (rats; 15,000 ppm in diet, FEMALE, postnatal day 1) was 6.6 grams and the “OFFSPRING WEIGHT, MEAN” value (rats; 15,000 ppm in diet, FEMALE, postnatal day 4) was 8.8 grams. The “OFFSPRING WEIGHT, MEAN” value (rats; 15,000 ppm in diet, FEMALE, postnatal day 7) was 14.0 grams, the “OFFSPRING WEIGHT, MEAN” value (rats; 15,000 ppm in diet, MALE, postnatal day 1) was 6.9 grams and the “OFFSPRING WEIGHT, MEAN” value (rats; 15,000 ppm in diet, MALE, postnatal day 4) was 9.3 grams. For the same compound, the “Mean Live Offspring Born” value (rats; 15,000 ppm in diet) was 13.1, the “POSTNATAL SURVIVAL, POSTNATAL DAY 14-21, MEAN” value (rats; 15,000 ppm in diet, rat offspring) was 100.0 % PER LITTER and the “Offspring FOUND DEAD” value (rats; 20,000 ppm in diet) was 11. The “OFFSPRING WEIGHT, MEAN” value (rats; 20,000 ppm in diet, FEMALE, postnatal day 1) was 6.6 grams, the “OFFSPRING WEIGHT, MEAN” value (rats; 20,000 ppm in diet, FEMALE, postnatal day 4) was 8.8 grams and the “OFFSPRING WEIGHT, MEAN” value (rats; 20,000 ppm in diet, MALE, postnatal day 1) was 7.0 grams. For the same compound, the “OFFSPRING WEIGHT, MEAN” value (rats; 20,000 ppm in diet, MALE, postnatal day 4) was 9.3 grams, the “Mean Live Offspring Born” value (rats; 20,000 ppm in diet) was 12.3 and the “POSTNATAL SURVIVAL, POSTNATAL DAY 4 (POST-SELECT)-21, MEAN” value (rats; [3]) was 98.0 % PER LITTER. The “POSTNATAL SURVIVAL, POSTNATAL DAY 14-21, MEAN” value (rats; [3]) was 100.0 % PER LITTER, the “SPLEEN WEIGHT, % DIFFERENCE” value (rats; 10,000 PPM vs 0 PPM) was −2.0% and the “SPLEEN WEIGHT, % DIFFERENCE” value (rats; 15,000 PPM vs 0 PPM) was −3.0%. The “SPLEEN WEIGHT, % DIFFERENCE” value (rats; 20,000 PPM vs 0 PPM) was −8.9%, the “offspring mortality (in words)” value (rats; conclusion from Table 3) was “decreases” and the “number of live offspring per litter (in words)” value (rats; conclusion from Table 4) was “increases”. The “follicle size (in words)” value (rats; conclusion from Table 6) was “increase”, the “postnatal offspring survival rates (in words)” value (rats; rats, conclusion from Table 1) was “increases” and the “offspring weight gain (in words)” value (rats; rats, conclusion from Table 2) was “increases”. For the same compound, the “spleen weight (in words)” value (rats; rats, males and second generation pups) was “spleen weight reduction”, the “fetus numbers at necropsy (in words)” value ([1]; conclusion from Table 5) was “increase” and the “FETAL DATA AT SCHEDULED NECROPSY, SEX FEMALE, MEAN” value ([1]; group 2, 500 MG/KG/DAY) was 7.2. For the same compound, the “FETAL DATA AT SCHEDULED NECROPSY, SEX FEMALE, N (number of fetuses)” value ([1]; group 2, 500 MG/KG/DAY) was 181, the “FETAL DATA AT SCHEDULED NECROPSY, SEX MALE, MEAN” value ([1]; group 2, 500 MG/KG/DAY) was 7.5 and the “FETAL DATA AT SCHEDULED NECROPSY, SEX MALE, N (number of fetuses)” value ([1]; group 2, 500 MG/KG/DAY) was 187. For the same compound, the “FETAL DATA AT SCHEDULED NECROPSY, VIABLE FETUSES, MEAN” value ([1]; group 2, 500 MG/KG/DAY) was 14.7, the “FETAL DATA AT SCHEDULED NECROPSY, SEX FEMALE, MEAN” value ([1]; group 3, 750 MG/KG/DAY) was 6.6 and the “FETAL DATA AT SCHEDULED NECROPSY, SEX FEMALE, N (number of fetuses)” value ([1]; group 3, 750 MG/KG/DAY) was 166. For the same compound, the “FETAL DATA AT SCHEDULED NECROPSY, SEX MALE, MEAN” value ([1]; group 3, 750 MG/KG/DAY) was 7.5, the “FETAL DATA AT SCHEDULED NECROPSY, SEX MALE, N (number of fetuses)” value ([1]; group 3, 750 MG/KG/DAY) was 188 and the “FETAL DATA AT SCHEDULED NECROPSY, VIABLE FETUSES, MEAN” value ([1]; group 3, 750 MG/KG/DAY) was 14.2. For the same compound, the “FETAL DATA AT SCHEDULED NECROPSY, SEX FEMALE, MEAN” value ([1]; group 4, 1,000 MG/KG/DAY) was 8.3, the “FETAL DATA AT SCHEDULED NECROPSY, SEX FEMALE, N (number of fetuses)” value ([1]; group 4, 1,000 MG/KG/DAY) was 208 and the “FETAL DATA AT SCHEDULED NECROPSY, SEX MALE, MEAN” value ([1]; group 4, 1,000 MG/KG/DAY) was 6.8. For the same compound, the “FETAL DATA AT SCHEDULED NECROPSY, SEX MALE, N (number of fetuses)” value ([1]; group 4, 1,000 MG/KG/DAY) was 170 and the “FETAL DATA AT SCHEDULED NECROPSY, VIABLE FETUSES, MEAN” value ([1]; group 4, 1,000 MG/KG/DAY) was 15.1.
